Data on 16 molecules can be found in patent publication US20250304535A1, “KAT6 Inhibitors” (BeiGene Switzerland GmbH, priority 2024, published 2025).

The subject of experiment [1] is histone H3K23 acetylation in U-2 OS cells. In words: Histone H3 lysine 23 acetylation assay in U-2 OS cells (high content analysis). The experiment is classed as cell-based. The note with it: 24 hrs exposure, H3K23ac level. On the procedure: Assay B: Histone H3 lysine 23 Acetylation Assay
Compounds were tested for their capacity to suppress the histone H3K23 acetylation in the following high content analysis assay.
The cell line U-2 OS (ATCC HTB-96) was seeded at a density of 2000 cells per well in black 384 well cell culture/imaging microplates in 45 μl McCoy's 5A medium with […]. After overnight incubation in 37° C., 5% CO2 incubator, cells were then treated with a 9-point dilution series of compounds and a blank control group with medium containing 0.1% DMSO.
Following a 24 hrs exposure to the compounds, the cells were fixed with 4% immunohistochemical fixative for 20 mins at room temperature, washed with DPBS with 2% fetal bovine serum, and permed with Perm Buffer III for 30 min on ice, washed with DPBS with 2% fetal bovine serum. Then the cells were blocked with Odyssey blocking buffer containing 0.1% Tween 20. 20 ul Anti-Histone H3 (acetyl K23) antibody (Abcam, ab177275) in odyssey blocking buffer containing 0.1% Tween20 was added and incubated overnight at 4° C. After incubation, the cells were washed for 3 times and a secondary antibody Anti-rabbit IgG (H+L), F(ab′)2 Fragment (Alexa Fluor® 647 Conjugate) (CST, 4414S) were added into cells for one hour. The cells were washed and 1 ug/ml DAPI (Thermo, 62248) were added for 10 min. Then cells were washed and read on the PerkinElmer Operetta CLS high content analysis system. The nuclei were identified by DAPI and H3K23ac level was calculated from the Alexa Fluor 647 intensity in the nuclei. Inhibition rate of H3K23ac was calculated as the mean intensity of cells per well relative to blank controls on the same plate.

Experiment [2] has as its target Recombinant human KAT6A protein (497-780) (Homo sapiens (Human), UniProt Q92794). Description: KAT6A biochemical TR-FRET assay. The note with it: histone H4 peptide 2000 nM, AcCoA 300 nM, enzyme 5 nM. Here is the method:
Enzymatic reactions of KAT6A and KAT6B were performed using Fluorescence Resonance Energy Transfer (TR-FRET) assay, which measures acetylation of a synthetic, biotinylated histone-H4 peptide by the KAT6A and KAT6B enzymes. Recombinant human KAT6A protein (497-780) were expressed in BL21 cell using an E. coli expression system. Recombinant human KAT6B protein (657-1069) was expressed in sf9 cell using a baculovirus expression system. […] Acetyl coenzyme A was purchased from Sigma-Aldrich (#A-2056).
Testing for the inhibition activities of various compounds disclosed herein was carried out at room temperature in assay buffer containing 100 mM Tris/HCl Ph7.8, 15 mM NaCl, 0.01% chicken egg white albumin, 1 mM DTT and 0.01% Tween-20. Compounds in DMSO were dispensed into wells of a black, 384-well plate (Corning 4514) using ECHO555 (Beckman). The final concentration ranges of the test compounds were 0.0625-1,000 nM, 0.625-10,000 nM, or 0.313-5,000 nM. Five μL of KAT6A or KAT6B enzyme solution were added to wells, and the plate was incubated for 1 hour at room temperature (rt). After incubation for 1 hour at rt, 5 μL H4 and AcCoA substrate solutions were added to the wells to initiate reaction, and the plate was incubated. After 2 hours reaction, 5 μL detection reagent were added to the wells, and the plate was incubated for 2 hours. After two hours incubation, detection reagent containing 5 nM Anti-histone H4 antibody (ABCAM #ab177790), 100 μM formic acid (sigma #06473-100ML), 0.1 test/μL streptavidin-XL665 (PerkinElmer #610SAXLG), 0.05 test/μL PAb anti-rabbit IgG-Eu (PerkinElmer μ61PARKLA) was added to the wells. TR-FRET was measured on a microplate reader (PHERAstar FSX, BMG labtech). […] In Table 6, I≤5 nM, 5 nM<II≤50 nM.
Background: In TR-FRET formats the signal depends on donor and acceptor labels being close together.

The target in experiment [3] is Recombinant human KAT6B protein (657-1069) (Homo sapiens (Human), UniProt Q8WYB5). In words: KAT6B biochemical TR-FRET assay. Conditions: histone H4 peptide 1000 nM, AcCoA 100 nM, enzyme 5 nM. Here is the method:
Enzymatic reactions of KAT6A and KAT6B were performed using Fluorescence Resonance Energy Transfer (TR-FRET) assay, which measures acetylation of a synthetic, biotinylated histone-H4 peptide by the KAT6A and KAT6B enzymes. Recombinant human KAT6A protein (497-780) were expressed in BL21 cell using an E. coli expression system. Recombinant human KAT6B protein (657-1069) was expressed in sf9 cell using a baculovirus expression system. Histone H4 peptide (SEQ ID NO: 1—[…]-GGK-Biotin), which was used as substrate, was synthesized by GL Biochem, Shanghai, China. Acetyl coenzyme A was purchased from Sigma-Aldrich (#A-2056).
Testing for the inhibition activities of various compounds disclosed herein was carried out at room temperature in assay buffer containing 100 mM Tris/HCl Ph7.8, 15 mM NaCl, 0.01% chicken egg white albumin, 1 mM DTT and 0.01% Tween-20. Compounds in DMSO were dispensed into wells of a black, 384-well plate (Corning 4514) using ECHO555 (Beckman). The final concentration ranges of the test compounds were 0.0625-1,000 nM, 0.625-10,000 nM, or 0.313-5,000 nM. Five μL of KAT6A or KAT6B enzyme solution were added to wells, and the plate was incubated for 1 hour at room temperature (rt). After incubation for 1 hour at rt, 5 μL H4 and AcCoA substrate solutions were added to the wells to initiate reaction, and the plate was incubated. After 2 hours reaction, 5 μL detection reagent were added to the wells, and the plate was incubated for 2 hours. After two hours incubation, detection reagent containing 5 nM Anti-histone H4 antibody (ABCAM #ab177790), 100 μM formic acid (sigma #06473-100ML), 0.1 test/μL streptavidin-XL665 (PerkinElmer #610SAXLG), 0.05 test/μL PAb anti-rabbit IgG-Eu (PerkinElmer μ61PARKLA) was added to the wells. TR-FRET was measured on a microplate reader (PHERAstar FSX, BMG labtech). The IC50s were calculated based on inhibition of enzyme activity in the presence of increasing concentrations of test compounds, and the results are shown in Table 6. In Table 6, I≤5 nM, 5 nM<II≤50 nM.

The IC50 is the concentration needed to halve the response being measured.

Sequence of Recombinant human KAT6A protein (497-780) (Q92794 497-780): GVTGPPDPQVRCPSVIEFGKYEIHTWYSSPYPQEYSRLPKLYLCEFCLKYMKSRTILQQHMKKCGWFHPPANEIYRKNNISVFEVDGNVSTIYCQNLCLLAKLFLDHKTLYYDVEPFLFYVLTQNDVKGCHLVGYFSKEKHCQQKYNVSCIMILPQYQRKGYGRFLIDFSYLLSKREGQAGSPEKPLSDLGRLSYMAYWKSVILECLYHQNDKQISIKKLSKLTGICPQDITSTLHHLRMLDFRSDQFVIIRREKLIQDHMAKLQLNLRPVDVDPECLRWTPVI
Sequence of Recombinant human KAT6B protein (657-1069) (Q8WYB5 657-1069): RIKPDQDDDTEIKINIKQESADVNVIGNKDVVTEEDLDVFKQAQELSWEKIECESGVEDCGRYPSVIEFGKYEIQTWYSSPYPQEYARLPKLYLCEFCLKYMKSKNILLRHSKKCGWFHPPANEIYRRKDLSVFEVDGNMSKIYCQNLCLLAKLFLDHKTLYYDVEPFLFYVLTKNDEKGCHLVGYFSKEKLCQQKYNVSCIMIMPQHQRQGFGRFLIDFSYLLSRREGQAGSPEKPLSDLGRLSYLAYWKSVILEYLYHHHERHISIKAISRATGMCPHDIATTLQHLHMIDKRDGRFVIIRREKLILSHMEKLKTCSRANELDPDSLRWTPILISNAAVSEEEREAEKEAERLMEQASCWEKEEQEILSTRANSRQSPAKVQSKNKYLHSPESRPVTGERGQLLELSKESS

Regarding `COc1ccc(C2(OC)COC2)cc1S(=O)(=O)NC(=O)c1ccc(Cn2cccn2)c(OC)n1` [Example C67, 5-((1H-pyrazol-1-yl)methyl)-6-methoxy-N-((2-methoxy-5-(3-methoxyoxetan-3-yl)phenyl)sulfonyl) picolinamide], the IC50 was not above 10 nM in experiment [1] (Homo sapiens, U2OS); not above 5 nM in experiment [2]; not above 5 nM in experiment [3].

`COc1cc(C(=O)NS(=O)(=O)c2nc(C(C)(C)C)ccc2OC)ccc1Cn1cccn1` [Example C27, 4-((1H-pyrazol-1-yl)methyl)-N-((6-(tert-butyl)-3-methoxypyridin-2-yl)sulfonyl)-3-methoxy-benzamide]: the IC50 was not above 10 nM in experiment [1] (Homo sapiens, U2OS); not above 5 nM in experiment [2]; not above 5 nM in experiment [3].

As to `COc1ccc(C(C)(C)C)cc1S(=O)(=O)NC(=O)c1ccc(Cc2ccccn2)c(C)c1` [Example C29, N-((5-(tert-butyl)-2-methoxyphenyl)sulfonyl)-3-methyl-4-(pyridin-2-ylmethyl)benzamide], the half-maximal inhibitory concentration (IC50) in experiment [1] (Homo sapiens, U2OS) is not above 10 nM; in experiment [2], not above 5 nM; in experiment [3], not above 5 nM.

`COc1cc(C(=O)NS(=O)(=O)c2nc(C(C)(C)C)ccc2OC)ccc1Cn1cc(N)cn1` [Example C38]: the half-inhibitory concentration (IC50) in experiment [1] is not above 10 nM; in experiment [2], not above 5 nM; in experiment [3], not above 5 nM.

As to `COc1ccc(C2(C)CC3(COC3)C2)cc1S(=O)(=O)NC(=O)c1ccc(Cn2cccn2)c(OC)n1` [Example C74, 5-((1H-pyrazol-1-yl)methyl)-6-methoxy-N-((2-methoxy-5-(6-methyl-2-oxaspiro[3.3]heptan-6-yl)phenyl)sulfonyl) picolinamide], the IC50 in experiment [1] (Homo sapiens, U2OS) was not above 10 nM; in experiment [2], not above 5 nM; in experiment [3], not above 5 nM.

Take `COc1ccc(C2(C(F)(F)F)CC2)cc1S(=O)(=O)NC(=O)c1ccc(Cn2cccn2)c(OC)n1` [Example C59, 5-((1H-pyrazol-1-yl)methyl)-6-methoxy-N-((2-methoxy-5-(1-(trifluoromethyl)cyclopropyl)phenyl)sulfonyl)picolinamide]: the half-maximal inhibitory concentration (IC50) is not above 10 nM in experiment [1] (Homo sapiens, U2OS); not above 5 nM in experiment [2]; not above 5 nM in experiment [3].

Take `C#Cc1cc(C(=O)NS(=O)(=O)c2cc3c(cc2OC)CCC3)ccc1Cn1cccn1` [Example C9, 4-((1H-pyrazol-1-yl)methyl)-3-ethynyl-N-((6-methoxy-2,3-dihydro-1H-inden-5-yl)sulfonyl)benzamide]: the IC50 in experiment [1] (Homo sapiens, U2OS) fell in the range of 10 to 100 nM; in experiment [2], 5 to 50 nM; in experiment [3], 5 to 50 nM.

Regarding `COc1ccc(C(C)(C)C)nc1S(=O)(=O)NC(=O)c1ccc(Cn2cccn2)c(N2CCC2)c1` [Example C20, 4-((1H-pyrazol-1-yl)methyl)-3-(azetidin-1-yl)-N-((6-(tert-butyl)-3-methoxypyridin-2-yl)sulfonyl)benzamide], the half-maximal inhibitory concentration (IC50) in experiment [1] (Homo sapiens, U2OS) was not above 10 nM; in experiment [2], not above 5 nM; in experiment [3], not above 5 nM.

`COc1ccc2c(c1S(=O)(=O)NC(=O)c1ccc(Cn3cccn3)c(OC)n1)OCC21CCOCC1` [Example C71, 5-((1H-pyrazol-1-yl)methyl)-6-methoxy-N-((6-methoxy-2′,3′,5′,6′-tetrahydro-2H-spiro[benzofuran-3,4′-pyran]-7-yl)sulfonyl) picolinamide]: the IC50 in experiment [1] (Homo sapiens, U2OS) was not above 10 nM; in experiment [2], not above 5 nM; in experiment [3] it was not above 5 nM.

Take `CCc1cc(C(=O)NS(=O)(=O)c2cc(C(C)(C)C)ccc2OC)ccc1Cn1cccn1` [Example C6, 4-((1H-pyrazol-1-yl)methyl)-N-((5-(tert-butyl)-2-methoxyphenyl)sulfonyl)-3-ethylbenzamide]: the IC50 in experiment [1] (Homo sapiens, U2OS) is not above 10 nM; in experiment [2] it was not above 5 nM; in experiment [3] it was not above 5 nM.

In the case of `COc1ccc(C(C)(C)C)nc1S(=O)(=O)NC(=O)c1ccc(Cn2cccn2)c(C2CC2)n1` [Example C48, 5-((1H-pyrazol-1-yl)methyl)-N-((6-(tert-butyl)-3-methoxypyridin-2-yl)sulfonyl)-6-cyclopropylpicolinamide], the half-maximal inhibitory concentration (IC50) is not above 10 nM in experiment [1] (Homo sapiens, U2OS); not above 5 nM in experiment [2]; not above 5 nM in experiment [3].

In the case of `COc1ccc(C(C)(C)C)nc1S(=O)(=O)NC(=O)c1ccc(Cn2cccn2)c(CC(F)F)c1` [Example C31, 4-((1H-pyrazol-1-yl)methyl)-N-((6-(tert-butyl)-3-methoxypyridin-2-yl)sulfonyl)-3-(2,2-difluoroethyl)benzamide], the IC50 is 10 to 100 nM in experiment [1] (Homo sapiens, U2OS); not above 5 nM in experiment [2]; not above 5 nM in experiment [3].

With `COc1ccc(C(C)(C)C)nc1S(=O)(=O)NC(=O)c1ccc(Cn2cccn2)c(C2COC2)c1` [Example C19, 4-((1H-pyrazol-1-yl)methyl)-N-((6-(tert-butyl)-3-methoxypyridin-2-yl)sulfonyl)-3-(oxetan-3-yl)benzamid], the 50% inhibitory concentration (IC50) in experiment [1] (Homo sapiens, U2OS) was 10 to 100 nM; in experiment [2], not above 5 nM; in experiment [3] it was not above 5 nM.

Consider `COc1ccccc1S(=O)(=O)NC(=O)c1ccc(Cn2cccn2)c(OC)n1` [Example C68, 5-((1H-pyrazol-1-yl)methyl)-6-methoxy-N-((2-methoxyphenyl)sulfonyl) picolinamide], for which the IC50 in experiment [1] (Homo sapiens, U2OS) was not above 10 nM; in experiment [2], 5 to 50 nM; in experiment [3], not above 5 nM.

Turning to `COc1ccc(N2CCC(OC)CC2)cc1S(=O)(=O)NC(=O)c1ccc(Cn2cccn2)c(C2CC2)c1` [Example C17, 4-((1H-pyrazol-1-yl)methyl)-3-cyclopropyl-N-((2-methoxy-5-(4-methoxypiperidin-1-yl)phenyl)sulfonyl)benzamide], the IC50 in experiment [1] (Homo sapiens, U2OS) is 10 to 100 nM; in experiment [2] it was not above 5 nM; in experiment [3], not above 5 nM.

As for `COc1ccc(C23CC(C2)C3)nc1S(=O)(=O)NC(=O)c1ccc(Cn2cccn2)c(OC)n1` [Example C79, 5-((1H-pyrazol-1-yl)methyl)-N-((6-(bicyclo[1.1.1]pentan-1-yl)-3-methoxypyridin-2-yl)sulfonyl)-6-methoxypicolinamide], the concentration for half-maximal inhibition (IC50) in experiment [1] (Homo sapiens, U2OS) was not above 10 nM; in experiment [2], not above 5 nM; in experiment [3], not above 5 nM.
